Measured values taken from patent US7868135B2, “Compositions of lipopeptide antibiotic derivatives and methods of use thereof” (priority 2003, dated 2011).

system: Staphylococcus aureus (MSSA); conditions: 24 h
Description: (“Approved Standard M7-A3”).
The antimicrobial lipopeptide derivatives described herein were tested for antimicrobial activity against Gram-positive bacteria as follows. The minimum inhibitory concentrations (MIC) of the antimicrobial lipopeptide derivatives of the invention were determined using NCCLS guidelines M7-A6 (2003) with a slight modification in that doubling serial dilutions were used to dilute the test compounds. The broth phase microdilution method was used. Isolated colonies of Staphylococcus aureus (MSSA) from an 18-24 hour blood agar plate cultures were used to inoculate cation adjusted Mueller-Hinton broth (CAMHB) supplemented with 0.625 mM calcium. […] A negative control containing media alone and a positive growth control containing bacteria with media alone were also included. MICs were determined after incubating the plates at about 37° C. for 24 hours. […] In Tables 1 to 16, R is the core cyclic peptide of amphomycin or aspartocin, which can be in the form of a β-isomer, an anhydro, a dianhydro, or any combination thereof. […] Furthermore, a person of skill in the art will appreciate that all the pounds, or groups of compounds, derived from the various combinations of and substituents shown in Tables 1 to 16, are disclosed by the present the same extent as if each compound or group of compounds was set forth individually.

| SMILES | MIC [µg/mL] |
| --- | --- |
| CCCCCCCCCCCCCCC(=O)NC(CC(=O)O)C(=O)NC1C(=O)N2CCCCC2C(=O)NC(C(C)C(=O)O)C(=O)NC(CC(=O)O)C(=O)NCC(=O)NC(CC(=O)O)C(=O)NCC(=O)NC(C(C)NC(=O)CNC(=O)[C@@H](N)C(C)C)C(=O)NC(C(C)C)C(=O)N2CCCC2C(=O)NC1C (some centres unmarked) [Compound 37, C15-Amphomycin-9-Gly-Val] | 2 to 4 |
| CCCCCCCCCCCCCCC(=O)NC(CC(=O)O)C(=O)NC1C(=O)N2CCCCC2C(=O)NC(C(C)C(=O)O)C(=O)NC(CC(=O)O)C(=O)NCC(=O)NC(CC(=O)O)C(=O)NCC(=O)NC(C(C)NC(=O)[C@@H](N)CC(N)=O)C(=O)NC(C(C)C)C(=O)N2CCCC2C(=O)NC1C (some centres unmarked) [Compound 38, C15-Amphomycin-9-Asn] | 2 |
| CCCCCCCCCCCCCCC(=O)NC(CC(=O)O)C(=O)NC1C(=O)N2CCCCC2C(=O)NC(C(C)C(=O)O)C(=O)NC(CC(=O)O)C(=O)NCC(=O)NC(CC(=O)O)C(=O)NCC(=O)NC(C(C)NC(=O)[C@@H](N)Cc2ccc(O)cc2)C(=O)NC(C(C)C)C(=O)N2CCCC2C(=O)NC1C (some centres unmarked) [Compound 39, C15-Amphomycin-9-Tyr] | 32 to 64 |
| CCCCCCCCCCCCCCC(=O)NC(CC(=O)O)C(=O)NC1C(=O)N2CCCCC2C(=O)NC(C(C)C(=O)O)C(=O)NC(CC(=O)O)C(=O)NCC(=O)NC(CC(=O)O)C(=O)NCC(=O)NC(C(C)NC(=O)CNC(=O)CN)C(=O)NC(C(C)C)C(=O)N2CCCC2C(=O)NC1C (centres unmarked) [Compound 42, C15-Amphomycin-9-Gly-Gly] | 1 |
| CCCCCCCCCCCCCCC(=O)NC(CC(=O)O)C(=O)NC1C(=O)N2CCCCC2C(=O)NC(C(C)C(=O)O)C(=O)NC(CC(=O)O)C(=O)NCC(=O)NC(CC(=O)O)C(=O)NCC(=O)NC(C(C)NC(=O)[C@@H](N)CCC(N)=O)C(=O)NC(C(C)C)C(=O)N2CCCC2C(=O)NC1C (some centres unmarked) [Compound 43, C15-Amphomycin-9-Gln] | 8 to 16 |
| CCCCCCCCCCCCCCC(=O)NC(CC(=O)O)C(=O)NC1C(=O)N2CCCCC2C(=O)NC(C(C)C(=O)O)C(=O)NC(CC(=O)O)C(=O)NCC(=O)NC(CC(=O)O)C(=O)NCC(=O)NC(C(C)NC(=O)CNC(=O)[C@@H](N)CC(C)C)C(=O)NC(C(C)C)C(=O)N2CCCC2C(=O)NC1C (some centres unmarked) [Compound 46, C15-Amphomycin-9-Gly-Leu] | 1 |
| CCCCCCCCCCCCCCC(=O)NC(CC(=O)O)C(=O)NC1C(=O)N2CCCCC2C(=O)NC(C(C)C(=O)O)C(=O)NC(CC(=O)O)C(=O)NCC(=O)NC(CC(=O)O)C(=O)NCC(=O)NC(C(C)NC(=O)CNC(=O)CCC(=O)O)C(=O)NC(C(C)C)C(=O)N2CCCC2C(=O)NC1C (centres unmarked) [Compound 48, C15-Amphomycin-9-Gly-Suc] | 8 |
| CCCCCCCCCCCCCCC(=O)NC(CC(=O)O)C(=O)NC1C(=O)N2CCCCC2C(=O)NC(C(C)C(=O)O)C(=O)NC(CC(=O)O)C(=O)NCC(=O)NC(CC(=O)O)C(=O)NCC(=O)NC(C(C)NC(=O)CNC(C)=O)C(=O)NC(C(C)C)C(=O)N2CCCC2C(=O)NC1C (centres unmarked) [Compound 49, C15-Amphomycin-9-Gly-Ac] | 4 |
| CCCCCCCCCCCCCCC(=O)NC(CC(=O)O)C(=O)NC1C(=O)N2CCCCC2C(=O)NC(C(C)C(=O)O)C(=O)NC(CC(=O)O)C(=O)NCC(=O)NC(CC(=O)O)C(=O)NCC(=O)NC(C(C)NC(=O)[C@@H](N)Cc2ccc(OC)cc2)C(=O)NC(C(C)C)C(=O)N2CCCC2C(=O)NC1C (some centres unmarked) [Compound 52, C15-Amphomycin-9-Tyr(Me)] | 16 |
| CCCCCCCCCCCCCCC(=O)NC(CC(=O)O)C(=O)NC1C(=O)N2CCCCC2C(=O)NC(C(C)C(=O)O)C(=O)NC(CC(=O)O)C(=O)NCC(=O)NC(CC(=O)O)C(=O)NCC(=O)NC(C(C)NC(=O)CCNC(=O)CCCCCN)C(=O)NC(C(C)C)C(=O)N2CCCC2C(=O)NC1C (stereo not drawn) [Compound 70, C15-Amphomycin-9-(β-Ala)-Ahx] | 2 |
| CCCCCCCCCCCCCCC(=O)NC(CC(=O)O)C(=O)NC1C(=O)N2CCCCC2C(=O)NC(C(C)C(=O)O)C(=O)NC(CC(=O)O)C(=O)NCC(=O)NC(CC(=O)O)C(=O)NCC(=O)NC(C(C)NC(=O)CCCNC(=O)[C@@H](N)C(C)C)C(=O)NC(C(C)C)C(=O)N2CCCC2C(=O)NC1C (some centres unmarked) [Compound 71, C15-Amphomycin-9-GABA-Val] | 4 |

Now from value to compound:

| MIC [µg/mL] | SMILES |
| --- | --- |
| 32 to 64 | CCCCCCCCCCCCCCC(=O)NC(CC(=O)O)C(=O)NC1C(=O)N2CCCCC2C(=O)NC(C(C)C(=O)O)C(=O)NC(CC(=O)O)C(=O)NCC(=O)NC(CC(=O)O)C(=O)NCC(=O)NC(C(C)NC(=O)[C@@H](N)Cc2c[nH]c3ccccc23)C(=O)NC(C(C)C)C(=O)N2CCCC2C(=O)NC1C (some centres unmarked) [Compound 40, C15-Amphomycin-9-Trp] |
| 4 | CCCCCCCCCCCCCCC(=O)NC(CC(=O)O)C(=O)NC1C(=O)N2CCCCC2C(=O)NC(C(C)C(=O)O)C(=O)NC(CC(=O)O)C(=O)NCC(=O)NC(CC(=O)O)C(=O)NCC(=O)NC(C(C)NC(=O)[C@@H](N)c2ccccc2)C(=O)NC(C(C)C)C(=O)N2CCCC2C(=O)NC1C (some centres unmarked) [Compound 41, C15-Amphomycin-9-Phg] |
| 2 to 4 | CCCCCCCCCCCCCCC(=O)NC(CC(=O)O)C(=O)NC1C(=O)N2CCCCC2C(=O)NC(C(C)C(=O)O)C(=O)NC(CC(=O)O)C(=O)NCC(=O)NC(CC(=O)O)C(=O)NCC(=O)NC(C(C)NC(=O)[C@@H](N)[C@@H](C)O)C(=O)NC(C(C)C)C(=O)N2CCCC2C(=O)NC1C (some centres unmarked) [Compound 44, C15-Amphomycin-9-Thr] |
| 4 | CCCCCCCCCCCCCCC(=O)NC(CC(=O)O)C(=O)NC1C(=O)N2CCCCC2C(=O)NC(C(C)C(=O)O)C(=O)NC(CC(=O)O)C(=O)NCC(=O)NC(CC(=O)O)C(=O)NCC(=O)NC(C(C)NC(=O)[C@@H](C)N)C(=O)NC(C(C)C)C(=O)N2CCCC2C(=O)NC1C (stereo partly drawn) [Compound 66, C15-Amphomycin-9-(D-Ala)] |
| 2 | CCCCCCCCCCCCCCC(=O)NC(CC(=O)O)C(=O)NC1C(=O)N2CCCCC2C(=O)NC(C(C)C(=O)O)C(=O)NC(CC(=O)O)C(=O)NCC(=O)NC(CC(=O)O)C(=O)NCC(=O)NC(C(C)NC(=O)CNC(=O)CCCN)C(=O)NC(C(C)C)C(=O)N2CCCC2C(=O)NC1C (centres unmarked) [Compound 68, C15-Amphomycin-9-Gly-GABA] |
| 8 | CCCCCCCCCCCCCCC(=O)NC(CC(=O)O)C(=O)NC1C(=O)N2CCCCC2C(=O)NC(C(C)C(=O)O)C(=O)NC(CC(=O)O)C(=O)NCC(=O)NC(CC(=O)O)C(=O)NCC(=O)NC(C(C)NC(=O)CCCNC(=O)CCCCCN)C(=O)NC(C(C)C)C(=O)N2CCCC2C(=O)NC1C (centres unmarked) [Compound 72, C15-Amphomycin-9-GABA-Ahx] |

same assay, conditions: S. aureus (MSSA), CAMHB supplemented with 0.625 mM calcium, 24 hours at about 37° C.; a range = compound tested multiple times

| SMILES | MIC |
| --- | --- |
| CCCCCCCCCCCCC(=O)NC(CC(=O)O)C(=O)NC1C(=O)N2CCCCC2C(=O)NC(C(C)C(=O)O)C(=O)NC(CC(=O)O)C(=O)NCC(=O)NC(CC(=O)O)C(=O)NCC(=O)NC(C(C)NC(=O)CCCN)C(=O)NC(C(C)C)C(=O)N2CCCC2C(=O)NC1C (centres unmarked) [Compound 50, C13-Amphomycin-9-GABA] | 50/1 μg/mL |
| CCCCCCCCCCCCC(=O)NC(CC(=O)O)C(=O)NC1C(=O)N2CCCCC2C(=O)NC(C(C)C(=O)O)C(=O)NC(CC(=O)O)C(=O)NCC(=O)NC(CC(=O)O)C(=O)NCC(=O)NC(C(C)NC(=O)CN)C(=O)NC(C(C)C)C(=O)N2CCCC2C(=O)NC1C (centres unmarked) [Compound 53, C13-Amphomycin-9-Gly] | 53/8 μg/mL |
| CCCCCCCCCCCCC(=O)NC(CC(=O)O)C(=O)NC1C(=O)N2CCCCC2C(=O)NC(C(C)C(=O)O)C(=O)NC(CC(=O)O)C(=O)NCC(=O)NC(CC(=O)O)C(=O)NCC(=O)NC(C(C)NC(=O)CNC)C(=O)NC(C(C)C)C(=O)N2CCCC2C(=O)NC1C (centres unmarked) [Compound 55, C13-Amphomycin-9-Sar] | 55/1 μg/mL |
| CCCCCCCCCCCC(=O)NC(CC(=O)O)C(=O)NC1C(=O)N2CCCCC2C(=O)NC(C(C)C(=O)O)C(=O)NC(CC(=O)O)C(=O)NCC(=O)NC(CC(=O)O)C(=O)NCC(=O)NC(C(C)NC(=O)CCCN)C(=O)NC(C(C)C)C(=O)N2CCCC2C(=O)NC1C (centres unmarked) [Compound 57, C12-Amphomycin-9-GABA] | 57/16 μg/mL |
| CCCCCCCCCCCC(=O)NC(CC(=O)O)C(=O)NC1C(=O)N2CCCCC2C(=O)NC(C(C)C(=O)O)C(=O)NC(CC(=O)O)C(=O)NCC(=O)NC(CC(=O)O)C(=O)NCC(=O)NC(C(C)NC(=O)CCN)C(=O)NC(C(C)C)C(=O)N2CCCC2C(=O)NC1C (stereo not drawn) [Compound 73, C12-Amphomycin-9-(β-Ala)] | 73/2-4 μg/mL |

Now from value to compound:

| MIC | SMILES |
| --- | --- |
| 54/2-4 μg/mL | CCCCCCCCCCCCC(=O)NC(CC(=O)O)C(=O)NC1C(=O)N2CCCCC2C(=O)NC(C(C)C(=O)O)C(=O)NC(CC(=O)O)C(=O)NCC(=O)NC(CC(=O)O)C(=O)NCC(=O)NC(C(C)NC(=O)CCN)C(=O)NC(C(C)C)C(=O)N2CCCC2C(=O)NC1C (stereo not drawn) [Compound 54, C13-Amphomycin-9-(β-Ala)] |
| 58/4-8 μg/mL | CCCCCCCCCCCC(=O)NC(CC(=O)O)C(=O)NC1C(=O)N2CCCCC2C(=O)NC(C(C)C(=O)O)C(=O)NC(CC(=O)O)C(=O)NCC(=O)NC(CC(=O)O)C(=O)NCC(=O)NC(C(C)NC(=O)CN)C(=O)NC(C(C)C)C(=O)N2CCCC2C(=O)NC1C (centres unmarked) [Compound 58, C12-Amphomycin-9-Gly] |
| 59/0.5-1 μg/mL | CCCCCCCCCCCCCC(=O)NC(CC(=O)O)C(=O)NC1C(=O)N2CCCCC2C(=O)NC(C(C)C(=O)O)C(=O)NC(CC(=O)O)C(=O)NCC(=O)NC(CC(=O)O)C(=O)NCC(=O)NC(C(C)NC(=O)CCN)C(=O)NC(C(C)C)C(=O)N2CCCC2C(=O)NC1C (stereo not drawn) [Compound 59, C14-Amphomycin-9-(β-Ala)] |
| 62/0.5-1 μg/mL | CCCCCCCCCCCCCC(=O)NC(CC(=O)O)C(=O)NC1C(=O)N2CCCCC2C(=O)NC(C(C)C(=O)O)C(=O)NC(CC(=O)O)C(=O)NCC(=O)NC(CC(=O)O)C(=O)NCC(=O)NC(C(C)NC(=O)CCCN)C(=O)NC(C(C)C)C(=O)N2CCCC2C(=O)NC1C (centres unmarked) [Compound 62, C14-Amphomycin-9-GABA] |
